# From publication PMC9090415, “Discovery of small molecule inhibitors of Plasmodium falciparum apicoplast DNA polymerase” (Journal of Enzyme Inhibition and Medicinal Chemistry, 2022)
# Target: P. falciparum apicoplast DNA polymerase (Pf-apPOL) (Plasmodium falciparum, UniProt Q8ILY1)
# Assay: Fluorescence-based high-throughput DNA polymerase assay (molecular beacon), primary screen and dose-response;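 on % inhibition ApPOL 90': test concentration in µM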;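 on % inhibition Apol 40': compound concentration given in µM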;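 on % inhibition apPOL 180': test concentration in µM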
# Type: biochemical
# Settings: for DNA Pol: 90 min, 10 µM
# How it was run: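 Single-point screening used 10 µM compound with 20 nM polymerase, 20 nM hairpin substrate and 6 µM dNTPs for 90 min at 25 °C. Confirmatory titrations (2.5–80 µM) followed fluorescence at three times, and IC50 was derived from a fit including a cooperativity term n.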
# Chain of P. falciparum apicoplast DNA polymerase (Pf-apPOL) (Q8ILY1 entry or part of it): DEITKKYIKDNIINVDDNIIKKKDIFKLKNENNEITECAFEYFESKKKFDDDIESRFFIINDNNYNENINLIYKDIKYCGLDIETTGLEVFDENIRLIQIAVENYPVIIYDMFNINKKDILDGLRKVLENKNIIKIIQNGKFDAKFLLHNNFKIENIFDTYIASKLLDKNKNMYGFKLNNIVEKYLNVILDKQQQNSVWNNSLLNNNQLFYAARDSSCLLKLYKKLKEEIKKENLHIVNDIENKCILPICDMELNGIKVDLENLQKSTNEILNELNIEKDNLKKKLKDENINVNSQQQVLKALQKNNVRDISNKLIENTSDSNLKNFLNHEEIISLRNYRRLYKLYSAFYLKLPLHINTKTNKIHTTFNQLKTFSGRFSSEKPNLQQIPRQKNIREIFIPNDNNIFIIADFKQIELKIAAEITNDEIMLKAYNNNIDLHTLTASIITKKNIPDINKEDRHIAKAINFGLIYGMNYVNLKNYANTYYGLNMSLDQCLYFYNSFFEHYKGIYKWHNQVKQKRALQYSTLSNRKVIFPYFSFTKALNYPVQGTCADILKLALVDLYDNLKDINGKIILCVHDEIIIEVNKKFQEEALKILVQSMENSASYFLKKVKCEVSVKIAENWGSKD
smiles,measurement,setting,value
"O=C(c1c[nH]c2ncccc12)N1CCCC1 [Molecule 63, O=C(c1c[nH]c2c1cccn2)N1CCCC1]",DNA Pol,"""DNA Pol"" of the 186 hits list (screen value)",28
same,% inhibition Apo pol 10',"DRC-1, concentration 2.5",5.209%
same,% inhibition Apo pol 10',"DRC-1, concentration 5",6.34%
same,% inhibition Apo pol 10',"DRC-1, concentration 10",30.6254%
same,% inhibition Apo pol 10',"DRC-1, concentration 20",50.0486%
same,% inhibition Apo pol 10',"DRC-1, concentration 40",59.3862%
same,% inhibition Apo pol 10',"DRC-1, concentration 80",75.2483%
same,% inhibition Apol 90',"DRC-1, concentration 2.5",5.771%
same,% inhibition Apol 90',"DRC-1, concentration 5",3.06%
same,% inhibition Apol 90',"DRC-1, concentration 10",21.9015%
same,% inhibition Apol 90',"DRC-1, concentration 20",39.4898%
same,% inhibition Apol 90',"DRC-1, concentration 40",47.3849%
same,% inhibition Apol 90',"DRC-1, concentration 80",77.404%
same,% inhibition apPOL 180',"DRC-1, concentration 2.5",3.366%
same,% inhibition apPOL 180',"DRC-1, concentration 5",-1.279%
same,% inhibition apPOL 180',"DRC-1, concentration 10",12.4312%
same,% inhibition apPOL 180',"DRC-1, concentration 20",25.4337%
same,% inhibition apPOL 180',"DRC-1, concentration 40",33.3219%
same,% inhibition apPOL 180',"DRC-1, concentration 80",74.0045%
same,% inhibition Apo pol 5',"DRC-2, concentration 2.5",3%
same,% inhibition Apo pol 5',"DRC-2, concentration 5",10%
same,% inhibition Apo pol 5',"DRC-2, concentration 10",29%
same,% inhibition Apo pol 5',"DRC-2, concentration 20",40%
same,% inhibition Apo pol 5',"DRC-2, concentration 40",42%
same,% inhibition Apo pol 5',"DRC-2, concentration 80",32%
same,% inhibition Apol 40',"DRC-2, concentration 2.5",3.74%
same,% inhibition Apol 40',"DRC-2, concentration 5",11%
same,% inhibition Apol 40',"DRC-2, concentration 10",33%
same,% inhibition Apol 40',"DRC-2, concentration 20",50%
same,% inhibition Apol 40',"DRC-2, concentration 40",62%
same,% inhibition Apol 40',"DRC-2, concentration 80",58%
same,% inhibition ApPOL 90',"DRC-2, concentration 2.5",2.81%
same,% inhibition ApPOL 90',"DRC-2, concentration 5",10%
same,% inhibition ApPOL 90',"DRC-2, concentration 10",30%
same,% inhibition ApPOL 90',"DRC-2, concentration 20",49%
same,% inhibition ApPOL 90',"DRC-2, concentration 40",66%
same,% inhibition ApPOL 90',"DRC-2, concentration 80",65%
same,% inhibition apPOL 180',"DRC-2, concentration 2.5",-1%
same,% inhibition apPOL 180',"DRC-2, concentration 5",3.46%
same,% inhibition apPOL 180',"DRC-2, concentration 10",21%
same,% inhibition apPOL 180',"DRC-2, concentration 20",41%
same,% inhibition apPOL 180',"DRC-2, concentration 40",65%
same,% inhibition apPOL 180',"DRC-2, concentration 80",68%
same,DNA Pol,"primary screen value, DNA Pol",28
